Laboratory results as given in patent US20050100529A1, “Methods of using and compositions comprising immunomodulatory compounds for the treatment and management of asbestos-related diseases and disorders” (priority 2003, published 2005).

Tests used:
[1] = solvent systems, humidity or heating as worded; cited from earlier work
[2] = crystalline polymorph of 3-(4-amino-1-oxo-1,3 dihydro-isoindol-2-yl)-piperidine-2,6-dione; cited from earlier work
IL10 = test: LPS-stimulated production of IL10 by PBMC; format: cell-based
TNF-α [3] = test: Inhibition of TNF-α production following LPS-stimulation of human PBMC; format: cell-based; settings: for IC50: human PBMC, LPS-stimulated, in vitro, read-out: IC50 for inhibiting production of TNF-α following LPS-stimulation of PBMC
Text: (§1) In a specific embodiment, inhibitions of TNF-α production following LPS-stimulation of human PBMC and human whole blood by 3-(4-amino-1-oxo-1,3-dihydro-isoindol-2-yl)-piperidine-2,6-dione, 4-(amino)-2-(2,6-dioxo-(3-piperidyl))-isoindoline-1,3-dione or thalidomide were investigated in vitro.

IL1β = test: LPS-stimulated production of IL1β by PBMC; format: cell-based
IL6 = test: LPS-stimulated production of IL6 by PBMC; format: cell-based
TNF-α [4] = test: Inhibition of TNF-α production following LPS-stimulation of human whole blood; format: cell-based; settings: LPS-stimulated, in vitro, read-out: IC50 for inhibiting production of TNF-α following LPS-stimulation of human whole blood
Text: as §1

mesothelioma patients = test: Clinical studies in unresectable or relapsed mesothelioma patients; format: in vivo, human; settings: 10 mg as a continuous oral daily dose
Experimental: Clinical trials with the administration of an immunomodulatory compound in an amount of from about 1 mg to about 1,000 mg, from about 1 mg to about 500 mg, or from about 1 mg to about 250 mg per day are conducted in patients with asbestosis, malignant mesothelioma, or malignant pleural effusion mesothelioma syndrome. In a specific embodiment, patients receive about 1 mg to about 150 mg/day of 3-(4-amino-1-oxo-1,3-dihydro-isoindol-2-yl)-piperidine-2,6-dione alone or in combination with vinorelbine. Patients who experience clinical benefit are permitted to continue on treatment.
Other clinical studies are performed using 3-(4-amino-1-oxo-1,3-dihydro-isoindol-2-yl)-piperidine-2,6-dione in unresectable or relapsed mesothelioma patients that have not responded to conventional therapy. In one embodiment, 3-(4-amino-1-oxo-1,3-dihydro-isoindol-2-yl)-piperidine-2,6-dione is administered in an amount of about 1 mg to about 150 mg/day to the patients. Treatment with 10 mg as a continuous oral daily dose is well-tolerated.

IC50 (TNF-α [3]) [nM]	IC50 (TNF-α [3]; same value in mass units) [µg/mL]	SMILES	Stability / interconversion of the polymorphic form [1]	Hygroscopicity [2]	further results
		Nc1cccc2c1CN(C1CCC(=O)NC1=O)C2=O (stereo not drawn) [Form D, 3-(4-amino-1-oxo-1,3 dihydro-isoindol-2-yl)-piperidene-2,6-dione]	convert to Form B when stressed at higher relative humidities	either weakly or not hygroscopic	
		Nc1cccc2c1CN(C1CCC(=O)NC1=O)C2=O (stereo not drawn) [Form C, 3-(4-amino-1-oxo-1,3 dihydro-isoindol-2-yl)-piperidene-2,6-dione]	can convert to Form B at higher relative humidities	not hygroscopic below about 85% RH	
		Nc1cccc2c1CN(C1CCC(=O)NC1=O)C2=O (stereo not drawn) [Form A, 3-(4-amino-1-oxo-1,3 dihydro-isoindol-2-yl)-piperidene-2,6-dione]	most thermodynamically stable anhydrous polymorph	weakly or not hygroscopic	
~24	~0.00655	Nc1cccc2c1C(=O)N(C1CCC(=O)NC1=O)C2=O (stereo not drawn) [4-(amino)-2-(2,6-dioxo(3-piperidyl))-isoindoline-1,3-dione]			Effect on production of the anti-inflammatory cytokine IL10 (IL10): increased production; Effect on LPS-stimulated production of TNF-α by PBMC (TNF-α [3]): dose-dependent inhibition; Effect on LPS-stimulated production of IL1β by PBMC (IL1β): dose-dependent inhibition; Effect on LPS-stimulated production of IL6 by PBMC (IL6): dose-dependent inhibition; IC50 (TNF-α [4]): ~25 nM; IC50 (TNF-α [4]; same value in mass units): ~0.00683 µg/mL
~194000	~50.1	O=C1CCC(N2C(=O)c3ccccc3C2=O)C(=O)N1 (racemic) [Thalidomide, thalidomide, reference compound]			
		Nc1cccc2c1CN(C1CCC(=O)NC1=O)C2=O (stereo not drawn) [Form B, 3-(4-amino-1-oxo-1,3 dihydro-isoindol-2-yl)-piperidene-2,6-dione]	converts to Form E in aqueous solvent systems		
~100	~0.0259	Nc1cccc2c1CN(C1CCC(=O)NC1=O)C2=O (stereo not drawn) [3-(4-amino-1-oxo-1,3-dihydro-isoindol-2-yl)-piperidine-2,6-dione]			Effect on production of the anti-inflammatory cytokine IL10 (IL10): increased production; Effect on LPS-stimulated production of TNF-α by PBMC (TNF-α [3]): dose-dependent inhibition; Tolerability (mesothelioma patients): well-tolerated; Effect on LPS-stimulated production of IL1β by PBMC (IL1β): dose-dependent inhibition; Effect on LPS-stimulated production of IL6 by PBMC (IL6): dose-dependent inhibition; IC50 (TNF-α [4]): ~480 nM; IC50 (TNF-α [4]; same value in mass units): ~0.104 µg/mL
		Nc1cccc2c1CN(C1CCC(=O)NC1=O)C2=O (stereo not drawn) [Form E, 3-(4-amino-1-oxo-1,3 dihydro-isoindol-2-yl)-piperidene-2,6-dione]	In aqueous solvent systems, Form E appears to be the most stable form		
